In US12589092B2, “Polycyclic compound acting as kinase inhibitor” (HANGZHOU INNOGATE PHARMA CO., LTD., priority 2020, dated 2026):
pIC50: −log10 of the molar value. Where two headings read alike, the source gives them in different places.

Tests used:
CDK6/cycD3 = CDK6/cycD3 (Homo sapiens, UniProt Q00534); test: CDK6 kinase activity inhibition assay (caliper mobility shift); type: biochemical; conditions: CDK6/cycD3 15 nM, ATP 800 μM; read-out: CDK6 kinase inhibitory activity (IC50)
Procedure: (§1) 1) CDK2, CDK4 and CDK6 Kinase Activity Inhibition Assay
(§2) In vitro enzymatic activity of the CDK isoforms CDK2/CycA2, CDK4/CycD3 and CDK6/cycD3 were measured using caliper mobility shift assay. Dissolve the compounds in DMSO and dilute them with corresponding kinase buffer (CDK2/CycA2 and CDK6/CycD3 were assayed with buffer conditions of 50 mM HEPES (pH 7.5), 10 mM MgCl2, 0.0015% Brij-35 and 2 mM dithiothreitol; CDK4/CycD3 was assayed with buffer condition of 20 mM HEPES (pH 7.5), 10 mM MgCl2, 0.01% Triton X-100 and 2 mM dithiothreitol). Add 5 μl of compound (10% DMSO) with 5 times the final concentration of the reaction to a 384-well plate. […] Collect conversion data on Caliper EZ Reader II (Caliper Life Sciences). Convert the conversion rate into inhibition rate data (% inhibition rate=(max−conversion rate)/(max−min)*100). […] Draw a curve with the concentration and inhibition rate of the compound as abscissa and ordinate, and use XLFit excel add-in version 4.3.1 software to fit the curve and calculate IC50.

in vivo = conditions: male, SD, rat, po, 3 mg/kg
Procedure: (§5) Instruments: XEVO TQ-S LC/MS instrument produced by Waters. All measurement data is collected and processed by Masslynx V4.1 software, and the data is calculated and processed by Microsoft Excel. Using WinNonLin 8.0 software, the statistical moment method was used to calculate the pharmacokinetic parameters. Mainly include kinetic parameters Tmax, T1/2, Cmax, AUClast etc. Column: ACQUITY UPLC BEH C18 (2.1 mm×50 mm, 1.7 μm); column temperature 40° C.; mobile phase A is water (0.1% formic acid), mobile phase B is acetonitrile, flow rate is 0.350 ml/min, gradient elution is adopted, the elution gradient is 0.50 min: 10% B; 1.50 min: 10% B; 2.30 min: 95% B; 2.31 min: 10% B; 3.00 min: stop. Injection volume: 5 μL.
(§6) Animals: 3 male SD rats with a weight range of 200-220 g. After purchase, they will be kept in the laboratory of the Experimental Animal Center for 2 days and then used. They will be fasted for 12 hours predose and 4 hours after dosing. Drinking water is free during the test. After the rats were gavage, blood samples were taken according to the established time point.
(§7) Solvent: 0.5% Methylcellulose (aqueous solution containing 0.4% Tween 80 and 1% ethanol). Preparation of the solution for intragastrical administration: accurately weigh the compound, add it to the solvent, and use ultrasound at room temperature for 5 minutes to completely dissolve the drug, and prepare a 0.3 mg/ml medicinal solution.
(§8) A single administration was also used to study the pharmacokinetics of the drug sample in rats.
(§9) After intragastrical administration, blood was taken from the orbit at 0.25, 0.5, 1, 2, 4, 9, 12 and 24 hours, and placed in a plastic centrifuge tube pretreated with sodium heparin. After centrifugation, the supernatant plasma was used for LC-MS/MS analysis.
(§10) Accurately weigh the compounds to prepare different concentrations, perform quantitative analysis on mass spectrometry to establish a standard curve, and then test the concentration of the above-mentioned compound in the plasma to obtain the compound concentration at different time points. All measurement data are collected and processed by relevant software, and the statistical moment method is used to calculate the pharmacokinetic parameters (mainly including kinetic parameters Tmax, T1/2, Cmax, AUClast etc).

CDK16/CycY = CDK16/CycY (Homo sapiens, UniProt Q00536); test: CDK16 kinase activity inhibition assay (ADP-Glo); type: biochemical; conditions: read-out: CDK16 kinase inhibitory activity (IC50)
Procedure: (§3) 3) CDK5, CDK9 and CDK16 Kinase Activity Inhibition Assay
(§4) CDK5/p35NCK, CDK9/CycT1 and CDK16/CycY protein kinase activities were determined using the ADP-Glo Kinase Assay. Dilute the positive compound and the test compound (10 mM stock solution) 25-fold with 100% DMSO, make a 4-fold serial dilution in a 96-well dilution plate, and add 1 μL of the compound to 49 μL of kinase reaction buffer (1 mM Tris, 20 mM MgCl2, 0.10% BSA and 0.5 mM DTT) on a microplate shaker for 20 min. Transfer 2 μL of 2× kinase to the 384-well reaction plate, add 1 μL of the test compound to the 384-well reaction plate, centrifuge at 1000 rpm/min for 1 min, and incubate at 25° C. for 10 min. Transfer 1 μL of the 4× substrate mix to the 384-well reaction plate, centrifuge at 1000 rpm/min for 1 min, and incubate at 25° C. for 60 min. Transfer 4 μL of ADP-Glo to the 384-well reaction plate to centrifuge at 1000 rpm/min for 1 min, and incubate at 25° C. for 40 min. Transfer 8 μL of detection solution to the 384-well reaction plate to centrifuge at 1000 rpm/min for 1 min, and incubate at 25° C. for 40 min. The RLU (Relative luminescence unit) signal was read using a Biotek multifunctional plate reader. Signal intensity is used to characterize the degree of kinase activity. Compound inhibition rate data: % inhibition rate=[1−(compound mean RLU−positive control mean RLU)/(negative control mean RLU−positive control mean RLU)]*100. Taking the log value of the concentration as the X axis and the percentage inhibition rate as the Y axis, the log(inhibitor) vs. response-Variable slope of the analysis software GraphPad Prism 5 was used to fit the dose-response curve to obtain the IC50 value of each compound on the enzyme activity.

CDK2/CycA2 = CDK2/CycA2 (Homo sapiens, UniProt P24941); test: CDK2 kinase activity inhibition assay (caliper mobility shift); type: biochemical; conditions: CDK2/CycA2 12 nM, ATP 39 μM; read-out: CDK2 kinase inhibitory activity (IC50)
Procedure: as §1, §2

CDK4/CycD3 = CDK4/CycD3 (Homo sapiens, UniProt P11802); test: CDK4 kinase activity inhibition assay (caliper mobility shift); type: biochemical; conditions: CDK4/CycD3 10 nM, ATP 221 μM; read-out: CDK4 kinase inhibitory activity (IC50)
Procedure: as §1, §2

CDK5/p35NCK = CDK5/p35NCK (Homo sapiens, UniProt Q00535); test: CDK5 kinase activity inhibition assay (ADP-Glo); type: biochemical; conditions: read-out: CDK5 kinase inhibitory activity (IC50)
Procedure: as §3, §4

CDK9/CycT1 = CDK9/CycT1 (Homo sapiens, UniProt P50750); test: CDK9 kinase activity inhibition assay (ADP-Glo); type: biochemical; conditions: read-out: CDK9 kinase inhibitory activity (IC50)
Procedure: as §3, §4

[1] = Pharmacokinetic study in rats (intragastrical administration, plasma LC-MS/MS); conditions: male, SD, rat, po, 3 mg/kg
Procedure: as §5, §6, §7, §8, §9, §10

TRKA = TRKA (Homo sapiens, UniProt P04629); test: TRKA kinase activity inhibition assay (caliper mobility shift); type: biochemical
Procedure: 2) TRKA Kinase Activity Inhibition Assay
TRKA protein kinase activity was measured by caliper mobility shift assay. Compounds were dissolved in DMSO to make up 10 mM stock solutions. Prepare 1× kinase reaction buffer to serially dilute compounds. 250 nL 100× final concentration of the test compounds were transferred to destination plate 3573 by dispenser Echo 550. Prepare a 2.5× final concentration of kinase solution with 1× kinase buffer. Add 10 μL of 2.5× final kinase solution to compound wells and positive control wells; add 10 μL of 1× kinase buffer to negative control wells. Centrifuge at 1000 rpm for 30 s, shake and mix the reaction plate and incubate at room temperature for 10 min. Prepare a mixture of ATP and kinase substrate solution at 5/3× final concentration with 1× kinase buffer. The reaction was initiated by adding 15 μL of the mixed solution. Centrifuge the 384-well plate at 1000 rpm for 30 s, shake and mix well, and incubate at room temperature for the corresponding time. Add 30 μL of stop solution to stop the kinase reaction, centrifuge at 1000 rpm for 30 s, mix by shaking, and read the conversion rate data with Caliper EZ Reader. Convert conversion to inhibition data (% inhibition=(max DMSO well conversion−sample well conversion)/(max DMSO well conversion−min negative control conversion)*100). Wherein max refers to the conversion rate of the DMSO control, and min refers to the conversion rate of the non-enzymatic control. Draw a curve with the concentration and inhibition rate of the compound as abscissa and ordinate, and use XLFit excel add-in version 4.3.1 software to fit the curve and calculate IC50.

[2] = read-out: TRKA kinase inhibitory activity (IC50)

Chain of CDK9/CycT1 (P50750 whole entry): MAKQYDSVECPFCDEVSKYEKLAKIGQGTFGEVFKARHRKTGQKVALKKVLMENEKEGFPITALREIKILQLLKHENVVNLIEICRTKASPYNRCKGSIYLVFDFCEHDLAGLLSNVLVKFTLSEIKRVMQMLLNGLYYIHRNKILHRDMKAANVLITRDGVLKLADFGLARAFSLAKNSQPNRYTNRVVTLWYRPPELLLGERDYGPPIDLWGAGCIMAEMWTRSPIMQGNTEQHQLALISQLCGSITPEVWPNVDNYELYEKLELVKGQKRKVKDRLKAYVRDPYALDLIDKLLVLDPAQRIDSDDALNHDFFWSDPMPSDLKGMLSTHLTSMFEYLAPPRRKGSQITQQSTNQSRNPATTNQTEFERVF
Chain of CDK9/CycT1 (O60563 whole entry partner): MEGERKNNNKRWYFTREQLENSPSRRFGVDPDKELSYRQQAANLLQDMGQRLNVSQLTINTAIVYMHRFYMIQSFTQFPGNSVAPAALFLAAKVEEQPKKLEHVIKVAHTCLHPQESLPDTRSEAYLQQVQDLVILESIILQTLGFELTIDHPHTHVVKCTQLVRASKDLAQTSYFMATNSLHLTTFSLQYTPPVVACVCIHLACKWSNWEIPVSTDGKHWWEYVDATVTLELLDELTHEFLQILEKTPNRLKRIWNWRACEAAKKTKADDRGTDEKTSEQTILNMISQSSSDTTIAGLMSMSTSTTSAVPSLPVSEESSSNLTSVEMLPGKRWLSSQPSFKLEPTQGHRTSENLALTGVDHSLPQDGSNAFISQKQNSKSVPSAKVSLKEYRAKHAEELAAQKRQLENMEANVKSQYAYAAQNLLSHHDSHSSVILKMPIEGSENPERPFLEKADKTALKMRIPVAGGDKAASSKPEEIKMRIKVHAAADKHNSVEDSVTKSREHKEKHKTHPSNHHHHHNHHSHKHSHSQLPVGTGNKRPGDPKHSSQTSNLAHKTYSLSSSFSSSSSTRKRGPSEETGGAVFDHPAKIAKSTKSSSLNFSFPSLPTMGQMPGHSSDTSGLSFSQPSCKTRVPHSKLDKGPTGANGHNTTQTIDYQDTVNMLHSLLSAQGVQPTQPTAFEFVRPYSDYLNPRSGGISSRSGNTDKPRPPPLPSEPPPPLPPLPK
Chain of CDK5/p35NCK (Q00535 whole entry): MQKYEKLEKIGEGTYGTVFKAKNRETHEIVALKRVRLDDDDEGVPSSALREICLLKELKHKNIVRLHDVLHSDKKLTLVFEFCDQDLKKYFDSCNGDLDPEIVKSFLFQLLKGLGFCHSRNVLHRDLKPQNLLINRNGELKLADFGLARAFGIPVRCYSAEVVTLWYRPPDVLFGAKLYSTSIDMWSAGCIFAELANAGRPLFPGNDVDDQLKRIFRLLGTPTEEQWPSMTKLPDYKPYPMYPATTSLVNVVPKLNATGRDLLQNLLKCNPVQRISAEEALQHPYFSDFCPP
Chain of CDK5/p35NCK (Q15078 whole entry partner): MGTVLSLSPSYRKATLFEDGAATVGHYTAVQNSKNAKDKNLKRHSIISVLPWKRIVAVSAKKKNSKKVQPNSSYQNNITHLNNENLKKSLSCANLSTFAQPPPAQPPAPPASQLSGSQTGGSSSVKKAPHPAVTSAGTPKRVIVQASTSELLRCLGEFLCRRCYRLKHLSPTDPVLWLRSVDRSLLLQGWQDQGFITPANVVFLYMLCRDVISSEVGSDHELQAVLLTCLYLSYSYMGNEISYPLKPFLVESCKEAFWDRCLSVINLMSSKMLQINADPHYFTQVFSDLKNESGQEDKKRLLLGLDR
Chain of TRKA (P04629 33-796): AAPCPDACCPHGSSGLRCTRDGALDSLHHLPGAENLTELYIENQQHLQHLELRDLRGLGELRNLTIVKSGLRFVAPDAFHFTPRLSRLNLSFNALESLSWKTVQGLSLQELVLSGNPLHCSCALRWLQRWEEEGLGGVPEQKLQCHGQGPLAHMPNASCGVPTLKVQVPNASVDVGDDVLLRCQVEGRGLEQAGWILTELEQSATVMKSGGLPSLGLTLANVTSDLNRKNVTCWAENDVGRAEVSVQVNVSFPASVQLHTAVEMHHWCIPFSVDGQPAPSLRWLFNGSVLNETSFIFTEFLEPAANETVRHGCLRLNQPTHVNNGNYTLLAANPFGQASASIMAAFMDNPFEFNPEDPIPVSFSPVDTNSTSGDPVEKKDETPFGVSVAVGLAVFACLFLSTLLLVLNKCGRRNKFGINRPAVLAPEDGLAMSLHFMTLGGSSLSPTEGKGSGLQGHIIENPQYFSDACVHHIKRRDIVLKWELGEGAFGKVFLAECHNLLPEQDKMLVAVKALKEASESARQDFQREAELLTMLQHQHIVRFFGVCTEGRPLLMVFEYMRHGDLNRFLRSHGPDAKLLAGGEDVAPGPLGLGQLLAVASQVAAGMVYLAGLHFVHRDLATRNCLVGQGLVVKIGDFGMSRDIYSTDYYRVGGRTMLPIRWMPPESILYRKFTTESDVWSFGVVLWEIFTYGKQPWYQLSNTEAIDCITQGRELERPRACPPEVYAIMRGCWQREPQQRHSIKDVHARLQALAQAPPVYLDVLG
Chain of CDK4/CycD3 (P11802 whole entry): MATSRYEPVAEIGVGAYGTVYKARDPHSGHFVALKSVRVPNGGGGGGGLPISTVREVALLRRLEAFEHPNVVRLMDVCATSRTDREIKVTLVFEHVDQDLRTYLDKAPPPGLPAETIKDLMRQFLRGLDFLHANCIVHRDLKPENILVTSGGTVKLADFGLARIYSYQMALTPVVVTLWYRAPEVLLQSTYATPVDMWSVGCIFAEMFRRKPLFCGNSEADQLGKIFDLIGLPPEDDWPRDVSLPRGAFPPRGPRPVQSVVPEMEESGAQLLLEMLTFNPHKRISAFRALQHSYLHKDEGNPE
Chain of CDK4/CycD3 (P30281 whole entry partner): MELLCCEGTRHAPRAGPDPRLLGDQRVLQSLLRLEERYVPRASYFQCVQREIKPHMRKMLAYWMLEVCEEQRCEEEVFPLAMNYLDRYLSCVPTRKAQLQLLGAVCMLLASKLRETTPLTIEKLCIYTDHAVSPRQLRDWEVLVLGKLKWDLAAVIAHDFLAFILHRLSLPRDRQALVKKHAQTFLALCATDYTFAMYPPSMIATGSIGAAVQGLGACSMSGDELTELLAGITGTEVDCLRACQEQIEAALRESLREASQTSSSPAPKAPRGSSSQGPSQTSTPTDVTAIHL
Chain of CDK16/CycY (Q00536 whole entry): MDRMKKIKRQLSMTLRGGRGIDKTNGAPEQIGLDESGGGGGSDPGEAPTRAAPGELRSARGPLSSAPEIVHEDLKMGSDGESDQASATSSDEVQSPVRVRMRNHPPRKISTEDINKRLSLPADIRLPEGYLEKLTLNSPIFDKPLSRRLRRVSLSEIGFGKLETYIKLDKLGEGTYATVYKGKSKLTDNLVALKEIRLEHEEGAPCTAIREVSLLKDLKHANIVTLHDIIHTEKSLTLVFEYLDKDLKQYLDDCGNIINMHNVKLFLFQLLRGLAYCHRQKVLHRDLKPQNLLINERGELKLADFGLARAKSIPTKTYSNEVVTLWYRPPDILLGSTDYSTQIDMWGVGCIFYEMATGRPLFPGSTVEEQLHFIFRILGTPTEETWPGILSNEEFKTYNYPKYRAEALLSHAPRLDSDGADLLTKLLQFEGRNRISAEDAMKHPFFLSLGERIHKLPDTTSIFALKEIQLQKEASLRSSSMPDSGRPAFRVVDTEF
Chain of CDK16/CycY (Q8ND76 whole entry partner): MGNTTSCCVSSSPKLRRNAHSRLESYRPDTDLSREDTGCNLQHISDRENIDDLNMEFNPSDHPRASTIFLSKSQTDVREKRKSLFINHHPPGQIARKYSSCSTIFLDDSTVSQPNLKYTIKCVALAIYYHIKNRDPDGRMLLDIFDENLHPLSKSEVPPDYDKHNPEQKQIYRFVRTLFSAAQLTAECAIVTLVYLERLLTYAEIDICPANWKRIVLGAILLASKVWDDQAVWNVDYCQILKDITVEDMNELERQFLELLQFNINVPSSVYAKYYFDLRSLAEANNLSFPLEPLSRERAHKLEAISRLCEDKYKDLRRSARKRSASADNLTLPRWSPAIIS
Chain of CDK6/cycD3 (Q00534 whole entry): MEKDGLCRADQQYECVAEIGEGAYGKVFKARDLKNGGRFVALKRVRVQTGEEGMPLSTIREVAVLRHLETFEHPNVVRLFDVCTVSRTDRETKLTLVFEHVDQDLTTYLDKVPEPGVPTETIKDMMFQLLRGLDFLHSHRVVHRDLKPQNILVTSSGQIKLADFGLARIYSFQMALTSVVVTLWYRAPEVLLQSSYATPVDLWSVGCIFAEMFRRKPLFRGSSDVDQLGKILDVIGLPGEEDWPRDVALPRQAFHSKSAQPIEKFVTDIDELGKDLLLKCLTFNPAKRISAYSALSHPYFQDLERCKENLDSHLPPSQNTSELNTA
Chain of CDK6/cycD3 (P30281 whole entry partner): as the sequence (P30281 whole entry partner) above

Structure (SMILES)	pIC50 (CDK6/cycD3)	AUC(0-t) (in vivo)	Cmax (in vivo)	Tmax (in vivo)	pIC50 (CDK16/CycY)	pIC50 (CDK2/CycA2)	pIC50 (CDK4/CycD3)	pIC50 (CDK5/p35NCK)	pIC50 (CDK9/CycT1)	half-life [1]	pIC50 (TRKA)	AUC(0-t) [1]	Cmax [1]	Tmax [1]	pIC50 (TRKA; [2])
CC(=O)c1c(C)c2cnc(Nc3ccc4c(c3)OC[C@@H]3CN(C5CCN(C)CC5)CCN43)nc2n(C2CCCC2)c1=O [Compound 2S]	> 8.00	1910 ng·h/mL	114 ng/mL	13.3 h	> 7.00	> 7.00	> 8.00	> 7.30	> 7.70	> 12 h	> 8.00				
CC(=O)c1c(C)c2cnc(Nc3ccc4c(c3)OC[C@H]3CN(C5CCN(C(C)=O)CC5)CCN43)nc2n(C2CCCC2)c1=O [Compound 5R]	> 7.70				> 6.70	> 7.00	> 8.00	> 6.70	> 7.30	2.91 h		4350 ng·h/mL	438 ng/mL	6.67 h	> 8.00
CCN1CCC(N2CCN3c4ccc(Nc5ncc6c(C)c(C(C)=O)c(=O)n(C7CCCC7)c6n5)cc4OC[C@@H]3C2)CC1 [Compound 4S]	> 8.00				> 7.00	> 7.00	> 8.00	> 7.00	> 7.70	10.7 h		3770 ng·h/mL	250 ng/mL	12 h	> 8.00
